# According to patent US9611252B2 (LifeSci Pharmaceuticals, Inc., priority 2013, dated 2017):
# Molecular target: human Plasma Kallikrein (Homo sapiens (Human), UniProt P03952)
# Assay: In vitro enzyme inhibition of human plasma kallikrein (PFR-AMC cleavage)
# Format: biochemical
# Conditions: human plasma kallikrein, Pro-Phe-Arg-AMC substrate, 37° C.; read-out: hPK IC50
# Experimental: The ability of the compounds disclosed herein to inhibit human plasma kallikrein activity was quantified according to the procedures below.
# A 10 mM solution of the test compound was made in DMSO. […] A control tube containing only DMSO is included. 16 μL of each compound test solution was combined with 384 μL of assay buffer (50 mM Tris-HCl pH 7.5, 150 mM NaCl, 0.01% Triton X-100) to yield a “4× test compound buffer stock”.
# These solutions are hereby referred to as 4×hPK and 2×PFR-AMC, respectively.
# 50 μL was removed from this mixture and placed into duplicate wells on a Microfluor 1Black U-bottom microtiter plate (Thermo Scientific). This plate was incubated for 5 minutes at 37° C. To each well, 50 μL of pre-warmed 2×PFR-AMC was added to start the enzymatic reaction. Cleavage of PFR-AMC was monitored in a Biotek Synergy H4 reader set at 37° C. Readings are taken every 43 seconds for 1 hour. […] The IC50 is calculated using the Gen5 (Biotek Instruments).
# The ability of the compounds in Table 3 to inhibit human plasma kallikrein activity was determined.
# human Plasma Kallikrein, sequence (P03952 20-638): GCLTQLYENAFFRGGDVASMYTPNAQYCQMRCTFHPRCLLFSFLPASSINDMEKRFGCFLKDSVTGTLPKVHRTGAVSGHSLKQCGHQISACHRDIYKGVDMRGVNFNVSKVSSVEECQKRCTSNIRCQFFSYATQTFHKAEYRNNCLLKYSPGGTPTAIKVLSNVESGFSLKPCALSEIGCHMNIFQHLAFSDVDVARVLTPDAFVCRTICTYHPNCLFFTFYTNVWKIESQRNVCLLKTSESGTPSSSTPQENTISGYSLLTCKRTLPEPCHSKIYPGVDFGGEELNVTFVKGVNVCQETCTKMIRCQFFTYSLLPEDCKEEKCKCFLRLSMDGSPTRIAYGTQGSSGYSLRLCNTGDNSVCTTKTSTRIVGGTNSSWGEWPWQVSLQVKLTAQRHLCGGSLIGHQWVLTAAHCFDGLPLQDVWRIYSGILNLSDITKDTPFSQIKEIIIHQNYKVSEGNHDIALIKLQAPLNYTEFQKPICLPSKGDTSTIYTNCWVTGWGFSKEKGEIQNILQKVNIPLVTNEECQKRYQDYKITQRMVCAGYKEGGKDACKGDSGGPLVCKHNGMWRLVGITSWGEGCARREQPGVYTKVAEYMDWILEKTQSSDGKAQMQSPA
row,Structure (SMILES),IC50
1,"CS(=O)(=O)c1ccc2cc(Cc3cc(C(=O)NCc4ccc5c(N)nccc5c4)ccn3)ccc2n1 [Example 134, N-((1-aminoisoquinolin-6-yl)methyl)-2-((2-(methylsulfonyl)quinolin-6-yl)methyl)isonicotinamide]",100 to 1000 nM
2,"Cc1ccc2nc(S(C)(=O)=O)c(Cc3cc(C(=O)NCc4cc5c(Cl)c[nH]c5cc4F)ccn3)cc2c1 [Example 109, N-((3-chloro-6-fluoro-1H-indol-5-yl)methyl)-2-((6-methyl-2-(methylsulfonyl)quinolin-3-yl)methyl)isonicotinamide]",100 to 1000 nM
3,"Cc1cnc2ccc(Cc3cc(C(=O)NCc4ccc5c(N)noc5c4)ccn3)cc2c1 [Example 47, N-((3-aminobenzo[d]isoxazol-6-yl)methyl)-2-((3-methylquinolin-6-yl)methyl)isonicotinamide]",1000 to 10000 nM
4,"CC(=O)NCc1ccc2cc(Cc3cc(C(=O)NCc4ccc5c(N)nccc5c4)ccn3)ccc2n1 [Example 10, 2-[2-(acetylamino-methyl)-quinolin-6-ylmethyl]-N-(1-amino-isoquinolin-6-ylmethyl)-isonicotinamide]",100 to 1000 nM
5,"Cc1cc(N)[n+]([O-])c(C)c1CNC(=O)c1ccnc(Cc2ccc3ncc(Cl)cc3c2)c1 [Example 98, 6-amino-3-((2-((3-chloroquinolin-6-yl)methyl)isonicotinamido)methyl)-2,4-dimethylpyridine 1-oxide]",100 to 1000 nM
6,"Cc1cnc2c(C#N)cc(Cc3cc(C(=O)NCc4cc5cc[nH]c5cc4F)ccn3)cc2c1 [Example 76, 2-((8-cyano-3-methylquinolin-6-yl)methyl)-N-((6-fluoro-1H-indol-5-yl)methyl)isonicotinamide]",< 100 nM
7,"NC(=O)c1ccc2cc(Cc3cc(C(=O)NCc4cc5c(Cl)c[nH]c5cc4F)ccn3)ccc2n1 [Example 1, 6-((4-(((3-chloro-6-fluoro-1H-indol-5-yl)methyl)carbamoyl)pyridin-2-yl)methyl)quinoline-2-carboxamide]",100 to 1000 nM

# Next, values leading:
row,IC50,Structure (SMILES)
1,< 100 nM,Cc1ccc2c(cnn2Cc2cc(C(=O)NCc3c(C)cc(N)nc3C)ccn2)c1 [Example 108]
2,1000 to 10000 nM,"Nc1noc2cc(CNC(=O)c3ccnc(Cc4ccc5ncc(Cl)cc5c4)c3)ccc12 [Example 36, N-((3-aminobenzo[d]isoxazol-6-yl)methyl)-2-((3-chloroquinolin-6-yl)methyl)isonicotinamide]"
3,1000 to 10000 nM,"Cc1cc(N)nc(C)c1CNC(=O)c1ccnc(Cn2ccc3cc(Cl)ccc3c2=O)c1 [Example 23, N-((6-amino-2,4-dimethylpyridin-3-yl)methyl)-2-((6-chloro-1-oxoisoquinolin-2(1H)-yl)methyl)isonicotinamide]"
4,< 100 nM,"Cc1nc(N)ccc1CNC(=O)c1ccnc(Cc2cc(Cl)c3ncc(Cl)cc3c2)c1 [Example 101, N-((6-amino-2-methylpyridin-3-yl)methyl)-2-((3,8-dichloroquinolin-6-yl)methyl)isonicotinamide]"
5,< 100 nM,"O=C(NCc1cc2c(Cl)c[nH]c2cc1F)c1ccnc(Cc2cc(F)c3ncc(Cl)cc3c2)c1 [Example 90, N-(3-chloro-6-fluoro-1H-indol-5-ylmethyl)-2-(3-chloro-8-fluoro-quinolin-6-ylmethyl)-isonicotinamide]"
6,100 to 1000 nM,"Cc1cc(N)nc(C)c1CNC(=O)c1ccnc(Cn2cc3cc(Cl)ccc3cc2=O)c1 [Example 87, N-((6-amino-2,4-dimethylpyridin-3-yl)methyl)-2-((7-chloro-3-oxoisoquinolin-2(3H)-yl)methyl)isonicotinamide]"
7,< 100 nM,"Cc1cc(N)nc(C)c1CNC(=O)c1ccnc(Cc2ccc3c(cc(Cl)c[n+]3[O-])c2)c1 [Example 99, 6-((4-(((6-amino-2,4-dimethylpyridin-3-yl)methyl)carbamoyl)pyridin-2-yl)methyl)-3-chloroquinoline 1-oxide]"
8,< 100 nM,"COC(=O)c1cc(Cc2cc(C(=O)NCc3c(C)cc(N)nc3C)ccn2)cc2cc(Cl)cnc12 [Example 92, methyl 6-((4-(((6-amino-2,4-dimethylpyridin-3-yl)methyl)carbamoyl)pyridin-2-yl)methyl)-3-chloroquinoline-8-carboxylate]"
